Data as given in patent US5202315A, “Cephalosporin compounds” (Lucky, Ltd., priority 1989, dated 1993).
Converted amounts (≈) assume the structure as drawn. Where two headings read alike, the source gives them in different places.

Experiments:
[1] = tested on: Micrococcus luteus ATCC 9341; assay: Antibacterial activity, MIC; assay type: cell-based; settings: ATCC9341, ATCC 9341, agar two-fold dilution, 37° C., 20 hours, read-out: MIC
Method in brief: (§1)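 Plates of Mueller-Hinton agar containing two-fold serial dilutions of compound were inoculated with 2 μl of test strain suspension (10^7 CFU per ml) and incubated for 20 hours at 37 °C.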

[2] = tested on: Proteus mirabilis ATCC 25933; assay: Antibacterial activity, MIC; assay type: cell-based; settings: ATCC25933, ATCC 25933, agar two-fold dilution, 37° C., 20 hours, read-out: MIC
Method in brief: as §1

[3] = In-vivo absorbency (plasma concentrations & pharmacokinetic parameters); parameters: species or system SD rat (male); settings: plasma, SD male rat, iv 20 mg/kg; for concentration at 1 h: 60 min; for concentration at 1 h / concentration at 2 h: read-out: Plasma Conc.; for concentration at 2 h: 120 min; for AUC / half-life: two compartment model; for half-life: rat, iv, 20 mg/kg
Description: The blood samples from the femoral vein of the rats were taken every hour after administration, and analyzed by bio-assay(agar well method).
Tested animal: SD male Rat (220~340 g)

[4] = tested on: Pseudomonas; assay: Antibacterial activity; assay type: cell-based; settings: statement in words
[5] = tested on: Streptococcus faecalis ATCC 29212; assay: Antibacterial activity, MIC; assay type: cell-based; settings: Enterococcus faecalis, ATCC29212; ATCC 29212; agar two-fold dilution, 37° C., 20 hours; read-out: MIC
Method in brief: as §1

CC(O/N=C(\C(=O)NC1C(=O)N2C(C(=O)[O-])=C(CSc3nc(N)cc(N)[n+]3C)CSC12)c1csc(N)n1)C(=O)O (stereo not drawn) [Compound I-4] gave an MIC [1] of 0.5 µg/mL (≈ 0.82 µM), an MIC [2] of 0.031 µg/mL (≈ 0.0508 µM) and a concentration at 1 h [3] of 2600 ng/mL. The concentration at 2 h [3] was 400 ng/mL, the AUC [3] was 18600 ng·h/mL and the half-life ([3]; read-out: T1/2 (α)) was 2 min. The half-life ([3]; read-out: T1/2 (β)) was 26 min.

Molecule CC[n+]1c(N)cc(N)nc1SCC1=C(C(=O)[O-])N2C(=O)C(NC(=O)/C(=N\OC(C)(C)C(=O)O)c3csc(N)n3)C2SC1 (stereo not drawn) [Compound I-2] has an MIC [1] of 0.25 µg/mL (≈ 0.392 µM), an MIC [2] of 0.031 µg/mL (≈ 0.0486 µM) and a concentration at 1 h [3] of 2600 ng/mL. It also gave a concentration at 2 h [3] of 400 ng/mL, an AUC [3] of 11400 ng·h/mL and a half-life ([3]; read-out: T1/2 (α)) of 2 min. It also gave a half-life ([3]; read-out: T1/2 (β)) of 23 min.

For C[n+]1c(N)cc(N)nc1SCC1=C(C(=O)[O-])N2C(=O)C(NC(=O)/C(=N\OC(C)(C)C(=O)O)c3csc(N)n3)[C@H]2SC1 (stereo partly drawn) [Compound I-1, 7-[(Z)-2-(2-aminothiazol-4-yl)-2-(2-carboxyprop-2-oxyimino)acetamido]-3-(4,6-diamino-1-methylpyrimidinium-2-yl) thiomethyl-3-cephem-4-carboxylate], the MIC [1] was 0.25 µg/mL (≈ 0.401 µM), the MIC [2] was 0.031 µg/mL (≈ 0.0497 µM) and the “antibacterial activities, especially against Pseudomonas” value [4] was “excellent”. The concentration at 1 h [3] was 7700 ng/mL, the concentration at 2 h [3] was 1800 ng/mL and the AUC [3] was 35300 ng·h/mL. The half-life ([3]; read-out: T1/2 (α)) was 3 min and the half-life ([3]; read-out: T1/2 (β)) was 26 min.

In the case of Cc1c(N)nc(SCC2=C(C(=O)[O-])N3C(=O)C(NC(=O)/C(=N\OC(C)(C)C(=O)O)c4csc(N)n4)C3SC2)[n+](C)c1N (stereo not drawn) [Compound I-30], the MIC [1] is reported as 0.5 µg/mL (≈ 0.784 µM), the MIC [2] is reported as 0.031 µg/mL (≈ 0.0486 µM) and the concentration at 1 h [3] is reported as 9600 ng/mL. The concentration at 2 h [3] was 2700 ng/mL, the AUC [3] was 41800 ng·h/mL and the half-life ([3]; read-out: T1/2 (α)) was 4 min. It also gave a half-life ([3]; read-out: T1/2 (β)) of 30 min.

In the case of CC[n+]1c(N)cc(N)nc1SCC1=C(C(=O)[O-])N2C(=O)C(NC(=O)/C(=N\OC(C)C(=O)O)c3csc(N)n3)C2SC1 (stereo not drawn) [Compound I-5], the MIC [1] is reported as 0.25 µg/mL (≈ 0.401 µM), the MIC [2] is reported as 0.031 µg/mL (≈ 0.0497 µM) and the concentration at 1 h [3] is reported as 9700 ng/mL. For the same molecule, the concentration at 2 h [3] was 3000 ng/mL, the AUC [3] was 39000 ng·h/mL and the half-life ([3]; read-out: T1/2 (α)) was 5 min. The half-life ([3]; read-out: T1/2 (β)) was 36 min.

CCC[n+]1c(N)cc(N)nc1SCC1=C(C(=O)[O-])N2C(=O)C(NC(=O)/C(=N\OC(C)C(=O)O)c3csc(N)n3)C2SC1 (stereo not drawn) [Compound I-45] gave an MIC [5] of over 128 µg/mL, an MIC [1] of 0.5 µg/mL (≈ 0.784 µM) and an MIC [2] of 0.063 µg/mL (≈ 0.0988 µM). It also gave a concentration at 1 h [3] of 11000 ng/mL, a concentration at 2 h [3] of 3600 ng/mL and an AUC [3] of 42900 ng·h/mL. The half-life ([3]; read-out: T1/2 (α)) was 4 min and the half-life ([3]; read-out: T1/2 (β)) was 38 min.

In the case of CCO/N=C(\C(=O)NC1C(=O)N2C(C(=O)[O-])=C(CSc3nc(N)cc(N)[n+]3N)CSC12)c1csc(N)n1 (stereo not drawn) [Compound I-16], the MIC [5] is reported as 32 µg/mL (≈ 56.5 µM), the MIC [1] is reported as 0.016 µg/mL (≈ 0.0282 µM) and the MIC [2] is reported as 0.13 µg/mL (≈ 0.229 µM). The concentration at 1 h [3] was 8800 ng/mL, the concentration at 2 h [3] was 1900 ng/mL and the AUC [3] was 38400 ng·h/mL. The half-life ([3]; read-out: T1/2 (α)) was 4 min and the half-life ([3]; read-out: T1/2 (β)) was 24 min.

For C[n+]1c(N)cc(N)nc1SCC1=C(C(=O)[O-])N2C(=O)C(NC(=O)/C(=N\OCC(=O)O)c3csc(N)n3)C2SC1 (stereo not drawn) [Compound I-7], the MIC [5] was over 128 µg/mL, the MIC [1] was 0.5 µg/mL (≈ 0.839 µM) and the MIC [2] was 0.016 µg/mL (≈ 0.0269 µM). The concentration at 1 h [3] was 8100 ng/mL, the concentration at 2 h [3] was 1900 ng/mL and the AUC [3] was 35700 ng·h/mL. For the same molecule, the half-life ([3]; read-out: T1/2 (α)) was 2 min and the half-life ([3]; read-out: T1/2 (β)) was 26 min.
